Laboratory results: PubChem BioAssay (NCI)
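Exposure lasted 48 hours, with cells grown in 96-well plates and compounds tested at five concentrations. Abbreviation: GI50, concentration required for 50% inhibition of growth. TGI is the concentration that stops growth completely.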 Where a SMILES comes first, the peptide text is derived from it. [ ]: non-standard residue; d: D form. Phe(ol) = N[C@H](CO)Cc1ccccc1; Aib = CC(C)(N)C(=O)O

How the values were obtained:
Assay in all cases: inhibition of tumour cell growth, NCI panel, 48 h; in the data active means GI50 below about 0.43 µM; inactive means the rest
[1] = system: MDA-MB-231 breast
[2] = system: NCI-H460 lung
[3] = system: HOP-92 NSCLC
[4] = system: COLO 205 colon
[5] = system: SK-MEL-2 melanoma
[6] = system: SF-539 CNS
[7] = system: MCF7 breast
[8] = system: OVCAR-5 ovarian
[9] = system: TK-10 renal
[10] = system: U251 CNS
[11] = system: SN12C renal
[12] = system: HL-60(TB) leukemia
[13] = system: T-47D breast
[14] = system: HT29 colon
[15] = system: SK-MEL-5 melanoma
[16] = system: ACHN renal
[17] = system: MOLT-4 leukemia
[18] = system: UACC-62 melanoma
[19] = system: SF-268 CNS
[20] = system: UO-31 renal
[21] = system: MALME-3M melanoma
[22] = system: SW-620 colon
[23] = system: SK-OV-3 ovarian
[24] = system: NCI-H226 lung
[25] = system: NCI-H23 lung
[26] = system: BT-549 breast
[27] = system: RPMI-8226 leukemia
[28] = system: SK-MEL-28 melanoma
[29] = system: 786-0 renal
[30] = system: OVCAR-8 ovarian
[31] = system: UACC-257 melanoma
[32] = system: PC-3 prostate
[33] = system: NCI-H522 lung
[34] = system: IGROV1 ovarian
[35] = system: SR leukemia
[36] = system: LOX IMVI melanoma
[37] = system: HOP-62 NSCLC
[38] = system: NCI/ADR-RES ovarian
[39] = system: OVCAR-3 ovarian
[40] = system: SF-295 CNS
[41] = system: A549 NSCLC
[42] = system: RXF 393 renal
[43] = system: M14 melanoma
[44] = system: HCC-2998 colon
[45] = system: HCT-116 colon
[46] = system: SNB-19 CNS
[47] = system: K-562 leukemia
[48] = system: OVCAR-4 ovarian
[49] = system: KM12 colon
[50] = system: CCRF-CEM leukemia
[51] = system: SNB-75 CNS
[52] = system: A498 renal
[53] = system: HS 578T breast
[54] = system: EKVX NSCLC
[55] = system: MDA-MB-435
[56] = system: HCT-15 colon
[57] = system: DU-145 prostate
[58] = system: CAKI-1 renal

CC(=O)NC(C)(C)C(=O)N1CCC[C@H]1C(=O)NC(C)(C)C(=O)N[C@@H](C)C(=O)NC(C)(C)C(=O)NC(C)(C)C(=O)N[C@@H](CCC(N)=O)C(=O)NC(C)(C)C(=O)N[C@H](C(=O)NC(C)(C)C(=O)NCC(=O)N[C@@H](CC(C)C)C(=O)NC(C)(C)C(=O)N1CCC[C@H]1C(=O)N[C@H](C(=O)NC(C)(C)C(=O)NC(C)(C)C(=O)N[C@@H](CCC(N)=O)C(=O)N[C@@H](CCC(N)=O)C(=O)N[C@H](CO)Cc1ccccc1)C(C)C)C(C)C (Ac-[Aib]P[Aib]A[Aib][Aib]Q[Aib]V[Aib]GL[Aib]PV[Aib][Aib]QQ[Phe(ol)])
inactive: GI50 [1] 1.29 µM | GI50 [2] 1.27 µM | GI50 [3] 1.1 µM | GI50 [4] 0.831 µM | GI50 [5] 1.33 µM | GI50 [6] 1.34 µM | GI50 [8] 1.73 µM | GI50 [9] 3.92 µM | GI50 [10] 1.07 µM | GI50 [11] 0.931 µM | GI50 [12] 1.74 µM | GI50 [13] 1.12 µM | GI50 [14] 1.26 µM | GI50 [15] 0.899 µM | GI50 [16] > 4.25 µM | GI50 [17] 2.8 µM | GI50 [18] 1.8 µM | GI50 [19] 1.73 µM | GI50 [20] > 4.25 µM | GI50 [21] 1.04 µM | GI50 [22] 2.55 µM | GI50 [23] 1.28 µM | GI50 [24] 1.32 µM | GI50 [25] 0.833 µM | GI50 [26] 0.78 µM | GI50 [28] 1.36 µM | GI50 [29] > 4.25 µM | GI50 [30] 2.43 µM | GI50 [31] 1.02 µM | GI50 [32] 1.34 µM | GI50 [33] 0.948 µM | GI50 [34] 3.06 µM | GI50 [35] 2.2 µM | GI50 [36] 1.57 µM | GI50 [37] 3.07 µM | GI50 [38] > 4.25 µM | GI50 [39] 1.29 µM | GI50 [40] 1.32 µM | GI50 [41] 1.69 µM | GI50 [42] 0.777 µM | GI50 [43] 3.85 µM | GI50 [44] 1.96 µM | GI50 [45] 1.58 µM | GI50 [46] 1.16 µM | GI50 [47] 1.88 µM | GI50 [48] 1.05 µM | GI50 [49] 1.88 µM | GI50 [50] 2.11 µM | GI50 [51] 0.788 µM | GI50 [52] 1.64 µM | GI50 [53] 1.49 µM | GI50 [54] 2.51 µM | GI50 [55] 1.5 µM | GI50 [56] > 4.25 µM
> 4.25 µM: TGI [1] | TGI [2] | TGI [6] | TGI [7] | TGI [8] | TGI [9] | TGI [10] | TGI [11] | TGI [12] | TGI [14] | TGI [16] | TGI [17] | TGI [18] | TGI [19] | TGI [20] | TGI [22] | TGI [23] | TGI [24] | TGI [25] | TGI [28] | TGI [29] | TGI [30] | TGI [32] | TGI [33] | TGI [34] | TGI [35] | TGI [36] | TGI [37] | TGI [38] | TGI [39] | TGI [40] | TGI [41] | TGI [43] | TGI [44] | TGI [45] | TGI [46] | TGI [47] | TGI [48] | TGI [49] | TGI [50] | TGI [51] | TGI [52] | TGI [53] | TGI [54] | TGI [55] | TGI [56]
2.19 µM: TGI [27]
1.96 µM: TGI [15]
2.31 µM: TGI [4]
2.66 µM: TGI [26]
4.02 µM: TGI [5]
active: GI50 [7] 0.206 µM | GI50 [27] 0.296 µM
3.58 µM: TGI [3]
3.88 µM: TGI [13]
3.43 µM: TGI [21] | TGI [31]
2.48 µM: TGI [42]

C#Cc1nc(C2=C(C)/C(=N/OCc3ccccc3)CC2)cs1
15.6 µM: TGI [50]
38.3 µM: TGI [27]
3.12 µM: TGI [29]
3.07 µM: TGI [6]
87.6 µM: TGI [17]
active: GI50 [20] 0.405 µM | GI50 [36] 0.199 µM
4.29 µM: TGI [34]
40.9 µM: TGI [12]
61.6 µM: TGI [23]
23.3 µM: TGI [33]
1.49 µM: TGI [20]
inactive: GI50 [1] 32.2 µM | GI50 [2] 44.2 µM | GI50 [3] 5.71 µM | GI50 [4] > 100 µM | GI50 [5] 61.8 µM | GI50 [6] 1.67 µM | GI50 [7] 21.6 µM | GI50 [8] 11.7 µM | GI50 [9] > 100 µM | GI50 [10] 50.1 µM | GI50 [11] 19.9 µM | GI50 [12] 17.5 µM | GI50 [13] 31 µM | GI50 [14] 31 µM | GI50 [15] 22.6 µM | GI50 [16] 2.91 µM | GI50 [17] 22.4 µM | GI50 [18] 37.2 µM | GI50 [19] 34.7 µM | GI50 [21] 8.37 µM | GI50 [22] 46.9 µM | GI50 [23] 25.5 µM | GI50 [24] 13.5 µM | GI50 [26] 15.5 µM | GI50 [27] 5.74 µM | GI50 [28] 49.2 µM | GI50 [29] 1.63 µM | GI50 [30] 47.8 µM | GI50 [31] 78.5 µM | GI50 [32] 36.8 µM | GI50 [33] 5.23 µM | GI50 [34] 1.97 µM | GI50 [37] > 100 µM | GI50 [38] 40.1 µM | GI50 [39] > 100 µM | GI50 [40] 4.76 µM | GI50 [41] 43.4 µM | GI50 [42] 2.76 µM | GI50 [43] 74.8 µM | GI50 [44] > 100 µM | GI50 [57] > 100 µM | GI50 [45] 31.9 µM | GI50 [46] 57.1 µM | GI50 [47] 40.4 µM | GI50 [48] 50.9 µM | GI50 [49] > 100 µM | GI50 [50] 3.28 µM | GI50 [51] > 100 µM | GI50 [52] > 100 µM | GI50 [53] 71.4 µM | GI50 [58] 32.6 µM | GI50 [54] > 100 µM | GI50 [55] > 100 µM | GI50 [56] 27.8 µM
21.7 µM: TGI [42]
> 100 µM: TGI [1] | TGI [2] | TGI [4] | TGI [5] | TGI [7] | TGI [8] | TGI [9] | TGI [10] | TGI [11] | TGI [13] | TGI [14] | TGI [15] | TGI [16] | TGI [18] | TGI [19] | TGI [22] | TGI [24] | TGI [28] | TGI [30] | TGI [31] | TGI [32] | TGI [37] | TGI [38] | TGI [39] | TGI [40] | TGI [41] | TGI [43] | TGI [44] | TGI [57] | TGI [45] | TGI [46] | TGI [47] | TGI [48] | TGI [49] | TGI [51] | TGI [52] | TGI [53] | TGI [58] | TGI [54] | TGI [55] | TGI [56]
33.9 µM: TGI [26]
0.444 µM: TGI [36]
30.6 µM: TGI [21]
24.5 µM: TGI [3]
